Here are results for 16 compounds from ChEMBL document CHEMBL4706671, “A High-Affinity Peptide Ligand Targeting Syntenin Inhibits Glioblastoma” (J Med Chem, 2021).

Data set [1] deals with T1, Syntenin-1 (Homo sapiens) (UniProt O00560).
T1 sequence (whole entry): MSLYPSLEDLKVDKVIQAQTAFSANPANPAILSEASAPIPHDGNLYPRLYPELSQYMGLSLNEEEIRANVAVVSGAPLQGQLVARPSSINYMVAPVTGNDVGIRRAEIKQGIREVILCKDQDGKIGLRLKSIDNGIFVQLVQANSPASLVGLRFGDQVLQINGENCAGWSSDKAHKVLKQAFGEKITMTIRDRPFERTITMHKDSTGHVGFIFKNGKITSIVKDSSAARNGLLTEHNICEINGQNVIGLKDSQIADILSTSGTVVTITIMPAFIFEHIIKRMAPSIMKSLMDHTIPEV
In words: Inhibition of mCherry-labeled-syntenin expressed in human MCF7 cells co-expressing […] Q79L mutant assessed as reduction in syntenin-dependent intracellular endosomal budding at 0.1 to 10 uM incubated for 24 hrs. The class given is cell-based. Conditions: dose 0.1-10 µM.

Data set [2] has as its target T2, Syntenin-1 (Homo sapiens, UniProt O00560).
T2 sequence (O00560 whole entry): T1 sequence (whole entry)
In words: (§1) Inhibition of syntenin-PDZ1-2 domain (unknown origin) expressed in Escherichia coli BL21 (DE3) incubated for 5 mins by fluorescence polarization assay.

The nature of data set [3]: Stability in human plasma assessed as half life for compound degradation at 0.2 mM by UPLC analysis. The format is ADME, cell-free.
Another data set has as its system A2058. Put plainly: Antineoplastic activity against human A2058 cells assessed as reduction in cell viability incubated for 72 hrs by Cell-titer-Glo luminescent cell viability assay. The class given is functional, cell-based.
The next data set relates to HT-29. In words: Antineoplastic activity against human HT-29 cells assessed as reduction in cell viability at 10 to 30 uM incubated for 72 hrs by Cell-titer-Glo luminescent cell viability assay. The format is functional, cell-based. Conditions: dose 10-30 µM.
The test system of the next data set is MCF7. Put plainly: Antineoplastic activity against human MCF7 cells assessed as reduction in cell viability at 10 to 30 uM incubated for 72 hrs by Cell-titer-Glo luminescent cell viability assay. The class given is functional, cell-based. Conditions: dose 10-30 µM.
The nature of data set [4]: Stability in mouse hepatic microsomes assessed as half life for compound degradation at […] in presence of NADPH by UPLC analysis. As to conditions: liver microsomes. The format is ADME, Microsome.
Data set [5] relates to GBM. Put plainly: Antineoplastic activity against human patient-derived GBM cells xenografted in NMRInu-F receiving GBM cells pre-treated with 50 uM compound for 24 hrs assessed as median survival time (reference value: 25 days). The class given is functional.
A short description of data set [6]: Drug distribution in cytoplasm of human patient-derived GBM002 cells at 10 to 30 uM incubated for 2 to 24 hrs hrs by confocal microscopy. Conditions: gbm, dose lower 10 µM, time lower 2 hrs, dose upper 30 µM, time upper 24 hrs. The class given is ADME, subcellular.
Data set [7] has as its target T1, Syntenin-1 (Homo sapiens). Described as §1.
Data set [8] relates to GBM. Put plainly: Antineoplastic activity against human patient-derived GBM001 cells assessed as reduction in cell viability incubated for 72 hrs by Cell-titer-Glo luminescent cell viability assay. The class given is functional, cell-based.
Data set [9] relates to GBM. Put plainly: Antineoplastic activity against human patient-derived GBM002 cells assessed as reduction in cell viability incubated for 72 hrs by Cell-titer-Glo luminescent cell viability assay. The format is functional, cell-based.
A further data set relates to Astrocyte. Put plainly: Cytotoxic activity against normal human astrocytes assessed as reduction in cell viability at 20 to 30 uM incubated for 24 hrs by Cell-titer-Glo luminescent cell viability assay. The class given is cell-based. Conditions: dose 20-30 µM.
Another data set has as its system HEK293. Put plainly: Cytotoxic activity against HEK293 cells assessed as reduction in cell viability at 12.5 to 50 uM incubated for 24 hrs by Cell-titer-Glo luminescent cell viability assay. The class given is cell-based. As to conditions: human, hek293, 24 h, dose 12.5-50 µM.
Data set [10] concerns the target T1, Syntenin-1 (Homo sapiens). In words: Binding affinity to syntenin-PDZ1-2 domain (unknown origin) expressed in Escherichia coli BL21 (DE3) assessed as apparent dissociation rate constant by SPR analysis.
Data set [11] deals with T2, Syntenin-1. Put plainly: Binding affinity to syntenin-PDZ1-2 domain (unknown origin) expressed in Escherichia coli BL21 (DE3) by SPR analysis.
The species named for the next data set is Homo sapiens. In words: Selectivity index, ratio of Kd for binding affinity to syntenin2-PDZ1-2 domain (unknown origin) expressed in Escherichia coli BL21 (DE3) by SPR analysis to Kd for binding affinity to syntenin-PDZ1-2 domain (unknown origin) expressed in Escherichia coli BL21 (DE3) by SPR analysis.
Data set [12] has as its target T1, Syntenin-1 (Homo sapiens). Put plainly: Binding affinity to human syntenin-PDZ1 domain assessed as binding intensity by HTS holdup assay.
Data set [13] concerns the target T1, Syntenin-1 (Homo sapiens). Put plainly: Binding affinity to syntenin-PDZ1-2 domain (unknown origin) expressed in Escherichia coli BL21 (DE3) assessed as apparent association rate constant by SPR analysis.
Data set [14] addresses T1, Syntenin-1 (Homo sapiens). Put plainly: Binding affinity to human syntenin-PDZ2 domain assessed as binding intensity by HTS holdup assay.

Active and inactive are the calls of the source. The calls are words filed in the database; no cut-off is given here. Non-standard residues stand in square brackets, D forms with d. Residues, ends and D or L forms follow the SMILES beside them. *: point of attachment. X1 = CN(C)c1ccc2c(-c3cc(C(=O)*)ccc3C(=O)[O-])c3ccc(=[N+](C)C)cc-3oc2c1; Biotin = O=C1N[C@H]2[C@H](CS[C@H]2CCCCC(=O)*)N1; Chg = N[C@H](C(=O)O)C1CCCCC1; Tle = CC(C)(C)[C@H](N)C(=O)O; AEEA = NCCOCCOCC(=O)O

For the compound `CC[C@H](C)[C@@H](NC(=O)[C@H](CC(=O)O)NC(=O)[C@@H](NC(=O)[C@@H](NC(=O)[C@H](Cc1c[nH]c2ccccc12)NC(=O)[C@H](Cc1cnc[nH]1)NC(=O)[C@H](CO)NC(=O)[C@H](CCCNC(=N)N)NC(=O)[C@H](CCCNC(=N)N)NC(=O)[C@H](CCCNC(=N)N)NC(=O)[C@H](CCCNC(=N)N)NC(=O)[C@H](CCCNC(=N)N)NC(=O)[C@H](CCCNC(=N)N)NC(=O)[C@H](CCCNC(=N)N)NC(=O)[C@H](CCCNC(=N)N)NC(=O)[C@H](CCCNC(=N)N)NC(C)=O)C(C)(C)C)C1CCCCC1)C(=O)O`, the inhibition entry in data set [1] was “Dose-dependent effect”. In addition, the Ki on Syntenin-1 [2] came to 250 nM.

As to `CC[C@H](C)[C@@H](NC(=O)[C@H](CC(=O)O)NC(=O)[C@@H](NC(=O)[C@@H](NC(=O)[C@H](Cc1c[nH]c2ccccc12)NC(=O)[C@H](Cc1cnc[nH]1)NC(=O)[C@H](CO)NC(=O)[C@@H]1CCC(=O)NCCCC[C@H](NC(C)=O)C(=O)N[C@H](CCCNC(=N)N)C(=O)N[C@@H](CCCNC(=N)N)C(=O)N[C@H](CCCNC(=N)N)C(=O)NCC(=O)N[C@H](CCCNC(=N)N)C(=O)N[C@@H](CCCCN)C(=O)N[C@H](CCCCN)C(=O)N[C@@H](CCCNC(=N)N)C(=O)N[C@H](CCCNC(=N)N)C(=O)N1)C(C)(C)C)C1CCCCC1)C(=O)O`, the half-life at 200 µM in data set [3] was over 24 h. For the same compound, the Activity result in the data set with A2058 is “Dose-dependent effect”. For the same compound, the inhibition result in [1] is “Dose-dependent effect”. Further, the outcome in the data set with HT-29 and in the data set with MCF7 was inactive. Also, the Ki on Syntenin-1 [2] turned out to be 250 nM. Further, in [4], the half-life was over 1 h.

On to `CC[C@H](C)[C@H](NC(=O)[C@H](CC(=O)O)NC(=O)[C@@H](NC(=O)[C@@H](NC(=O)[C@H](Cc1c[nH]c2ccccc12)NC(=O)[C@H](Cc1c[nH]cn1)NC(=O)[C@H](CO)NC(=O)[C@H](CCCNC(=N)N)NC(=O)[C@H](CCCNC(=N)N)NC(=O)[C@H](CCCNC(=N)N)NC(=O)[C@H](CCC(N)=O)NC(=O)[C@H](CCCNC(=N)N)NC(=O)[C@H](CCCNC(=N)N)NC(=O)[C@H](CCCCN)NC(=O)[C@H](CCCCN)NC(=O)[C@H](CCCNC(=N)N)NC(=O)CNC(=O)[C@H](Cc1ccc(O)cc1)NC(C)=O)C(C)(C)C)C1CCCCC1)C(=O)O`, for which the half-life in data set [4] is over 1 h.

With `CC[C@H](C)[C@@H](NC(=O)[C@H](CC(=O)O)NC(=O)[C@@H](NC(=O)[C@@H](NC(=O)[C@H](Cc1c[nH]c2ccccc12)NC(=O)[C@H](Cc1cnc[nH]1)NC(=O)[C@H](CO)NC(=O)[C@H](CCCNC(=N)N)NC(=O)[C@H](CCCNC(=N)N)NC(=O)[C@H](CCCNC(=N)N)NC(=O)[C@H](CCC(N)=O)NC(=O)[C@H](CCCNC(=N)N)NC(=O)[C@H](CCCNC(=N)N)NC(=O)[C@H](CCCCN)NC(=O)[C@H](CCCCN)NC(=O)[C@H](CCCNC(=N)N)NC(=O)CNC(=O)[C@H](Cc1ccc(O)cc1)NC(C)=O)C(C)(C)C)C1CCCCC1)C(=O)O`, in data set [1], the inhibition result is “Dose-dependent effect”. On Syntenin-1 [2], this compound had an inhibition constant (Ki) of 250 nM.

As to `CC[C@H](C)[C@H](NC(=O)[C@H](CC(=O)O)NC(=O)CNC(=O)[C@H](Cc1cnc[nH]1)NC(=O)[C@H](CS)NC(=O)[C@H](CCC(=O)O)NC(=O)[C@H](CC(C)C)NC(=O)[C@@H](NC(=O)[C@H](Cc1c[nH]c2ccccc12)NC(=O)[C@H](Cc1cnc[nH]1)NC(=O)[C@H](CO)NC(=O)[C@H](CCCNC(=N)N)NC(=O)[C@H](CCCNC(=N)N)NC(=O)[C@H](CCCCN)NC(=O)[C@H](CCCCN)NC(=O)[C@H](CCCNC(=N)N)NC(=O)CNC(=O)[C@H](CCCNC(=N)N)NC(=O)[C@H](CCCNC(=N)N)NC(=O)[C@H](CCCNC(=N)N)NC(=O)[C@H](CS)NC(=O)[C@H](C)N)[C@@H](C)O)C(=O)O` (H-ACRRRGRKKRRSHWTLECHGDI-OH), the Activity result in the data set with A2058 is “Dose-dependent effect”; with GBM [8], “Dose-dependent effect”; in the data set with GBM [9], “Dose-dependent effect”; in the data set with Astrocyte it was “Toxic”; in the data set on HEK293, “Toxic”. In [1], the inhibition entry is “Dose-dependent effect”. Also, the MST in the data set on GBM [5] was found to be 45.5 days. Besides, the Drug uptake result in data set [6] is “Dose-dependent effect and Tde”. Also, the result in the data set with HT-29 and in the data set on MCF7 was inactive. Further, the inhibition entry in [7] was “Active”. In addition, the half-life in [4] is over 1 h.

`CC[C@H](C)[C@H](NC(=O)[C@H](Cc1cnc[nH]1)NC(=O)[C@@H](NC(=O)[C@@H](NC(=O)[C@@H](N)CC(=O)O)C1CCCCC1)C(C)(C)C)C(=O)N[C@@H](Cc1c[nH]c2ccccc12)C(=O)N[C@@H](CO)C(=O)O` (H-D[Chg][Tle]HIWS-OH) had an inhibition constant Ki at Syntenin-1 [2] of over 500000 nM.

Consider `CC[C@H](C)[C@H](NC(=O)[C@H](CC(=O)O)NC(=O)[C@@H](NC(=O)[C@@H](NC(=O)[C@H](Cc1c[nH]c2ccccc12)NC(=O)[C@H](Cc1cnc[nH]1)NC(=O)[C@H](CO)NC(=O)CNC(=O)[C@H](CC(N)=O)NC(=O)[C@H](CC(N)=O)NC(=O)c1ccc(C(=O)[O-])c(-c2c3ccc(=[N+](C)C)cc-3oc3cc(N(C)C)ccc23)c1)C(C)(C)C)C1CCCCC1)C(=O)O` (X1-NNGSHW[Tle][Chg]DI-OH), for which the affinity on Syntenin-1 [2], expressed as Ki, was 30 nM. This counts as double-digit nanomolar.

`CC[C@H](C)[C@H](NC(=O)[C@H](CC(=O)O)NC(=O)[C@@H](NC(=O)[C@@H](NC(=O)[C@H](Cc1c[nH]c2ccccc12)NC(=O)[C@H](Cc1cnc[nH]1)NC(=O)[C@H](CO)NC(=O)COCCOCCNC(=O)CCCC[C@@H]1SC[C@@H]2NC(=O)N[C@@H]21)C(C)(C)C)C1CCCCC1)C(=O)O` ({Biotin-AEEA}-SHW[Tle][Chg]DI-OH): the K in data set [10] was 0.05 s⁻¹; in data set [13] it was 3.1 10^5/M/s. The Ki at Syntenin-1 [11] stood at 170 nM; at Syntenin-1 [2], 190 nM. Moreover, the Ratio in the data set listed under Homo sapiens is 440. For the same compound, in data set [12], the Flu intensity was found to be 0.96. For the same compound, in data set [14], the result was inactive.

On to `CC(C)NCC(O)COc1cccc2ccccc12` (stereo not drawn) [PROPRANOLOL], for which the half-life in [4] amounted to 0.583 h.

The compound H-KDKEYYV-OH returned a Ki on Syntenin-1 [2] of 110000 nM.

In the case of H-NAIYSLA-OH, the Ki at Syntenin-1 [2] came to 100000 nM.

On Syntenin-1 [2], H-RSGYEVM-OH registered a Ki of 24000 nM.

With H-SHWTIDI-OH, the half-life at 200 µM in [3] is 0.142 h. For the same compound, on Syntenin-1 [2], the inhibitory constant (Ki) came out at 2000 nM. Also, the half-life in data set [4] is over 1 h.

The compound H-SKGETAV-OH displayed a Ki at Syntenin-1 [2] of 10000 nM. This lies in the double-digit micromolar range.

At Syntenin-1 [2], H-TLEDSVF-OH returned an inhibitory constant (Ki) of 44000 nM.

Compound H-TTNEFYA-OH had an inhibitory constant (Ki) at Syntenin-1 [2] of 2000 nM.
